The NIST ThermoML archive (doi:10.1016/j.fluid.2014.09.015)

Details: Liquid, Closed cell (Static) method

CC(O)CO (stereo not given) [1,2-propanediol]
Details | vapor or sublimation pressure [kPa]
350.15 K | 0.84
355.15 K | 1.131
360.15 K | 1.506
365.15 K | 1.987
370.15 K | 2.596
375.15 K | 3.361
380.15 K | 4.316
385.15 K | 5.496
390.15 K | 6.946
395.15 K | 8.715
400.15 K | 10.86
405.15 K | 13.44
410.15 K | 16.53
415.15 K | 20.22
420.15 K | 24.59
